Measurements: ChEMBL document CHEMBL5214919, “Discovery of Novel BRD4 Ligand Scaffolds by Automated Navigation of the Fragment Chemical Space” (J Med Chem, 2021)

Experiments:
[1] = target: T1, Bromodomain-containing protein 4 (Homo sapiens, UniProt O60885); experiment: Binding affinity to BRD4 (unknown origin) expressed in Escherichia coli BL21 (DE3) assessed as thermal stabilization at 10 uM by SYPRO orange dye based DSF assay
[2] = target: T1, Bromodomain-containing protein 4; experiment: Inhibition of BRD4 (unknown origin) expressed in Escherichia coli BL21 (DE3) using [Lys(Ac)5/8/12/16]-histone H4 (1 to 21residues)-GGK as substrate incubated for 30 mins by TR-FRET assay

| ΔTm [1] [°C] | IC50 [2] [µM] | Structure (SMILES) |
| --- | --- | --- |
| 0.9 | – | COc1ccc(CNC(=O)CSc2nnc(N)s2)cc1 |
| 4.55 | 91 | Cc1noc(N)c1-c1ccccc1 |
| 1.8 | 30 | Cc1cc(SCc2c(C)noc2C)ncn1 |
| 0.9 | – | CCCc1nnc(NC(=O)c2c(C)noc2C)s1 |
| 2.4 | 491 | Oc1ccc(Cl)cc1Nc1ncnc2nc[nH]c12 |
| 1.6 | – | COc1cccc(Cc2nnc(N)s2)c1 |
| 3.3 | – | CCc1nnc2scc(-c3ccccc3)n12 |
| – | 86 | Cc1noc(C)c1C(=O)Nc1nnc(C2CC2)s1 |
| – | 644 | Oc1ccccc1-n1c(O)nnc1S |
| – | 191 | Cc1noc(C)c1CSc1nnc(C)n1N |
| 3.1 | – | Nc1noc2c1c(=O)[nH]c1ccccc12 |
| 0.8 | 79 | Cc1cc(Cl)ccc1O[C@H](C)c1nnc(N)s1 |
| 3.4 | – | Cc1nc(C#N)c(NCc2csnn2)o1 |
| 2.6 | – | Cc1nonc1-c1cc2ccccc2[nH]1 |
| 2.9 | – | Cc1nnc2n1C[C@@H](NC(=O)Cn1cnnn1)CC2 |
| 0.9 | – | Cc1n[nH]c2nnc(N)c-2c1C |
